Measured values from ChEMBL document CHEMBL3507680, “University of Dundee, Gates Library screen for HepG2 cell viability”.

Test: Human HepG2 cell viability assay in 384 well format
Format: toxicity, cell-based
Parameters: dose 125 nL, time 70.5 hour; concentration not given beside the values
Conditions: HepG2 cells, read-out: Inhibition

Compound	cytotoxicity at 70.5 h [%]
CN(C)C(=O)CSc1nnc(CCNC(=O)OC(C)(C)C)o1	22.7
O=C(CC1CCCCC1)N1CCOCC1CO (stereo not drawn)	-14.9
c1ccc2c(c1)CCN2c1nc(N2CCOCC2)c2nn[nH]c2n1	32.9
O=S(=O)(NCC1CCN(c2cnccn2)CC1)C1CC1	30.4
CC(=O)c1ccc(S(=O)(=O)NCC2CCN(c3cnccn3)CC2)cc1	-4.91
CCCc1nnsc1C(=O)NCC1CCN(C(=O)c2ccncc2)CC1	25.7
COc1cccc(C(=O)NCC2CCN(C(=O)c3ccoc3)CC2)c1	-3.78
COc1ccc(CCC(=O)NCCN2CCC(c3cccs3)CC2)cc1	-1.5
CSCC(C)(O)CNS(=O)(=O)Cc1ccc(F)cc1 (stereo not drawn)	-11.7
CCOc1ccccc1NC(=O)NCC(C)(O)CCSC (stereo not drawn)	-3.88
COc1cccc(NC(=O)NCC(C)(O)CCSC)c1OC (stereo not drawn)	-8.28
CC(C)(C)C(O)CCNC(=O)c1ccc(F)cc1Cl (stereo not drawn)	-16.1
O=S(=O)(NCCC(O)c1cccs1)c1c(F)cccc1F (stereo not drawn)	-14.6
COc1ccc(Cl)cc1NC(=O)CN1CCc2nc(NC(C)=O)sc2C1	18.9
O=C(Nc1nc2c(s1)CN(S(=O)(=O)C1CC1)CC2)C1CC1	27
COC(=O)Nc1nc2c(s1)CN(C(=O)NCc1cccs1)CC2	-7.97
CC(C)NC(=O)Nc1nc2c(s1)CN(C(=O)NCc1cccs1)CC2	-0.676
O=C(Nc1nc2c(s1)CN(S(=O)(=O)C1CC1)CC2)c1ccsc1	-12.1
COc1ccc(F)cc1S(=O)(=O)N1CCN(CCn2ccnc2)CC1	-12.2
O=S(=O)(NCC(O)c1ccc(C(F)(F)F)cc1)C1CC1 (stereo not drawn)	12.5
O=S(=O)(NCC1(O)CCOc2ccccc21)c1ccc(Cl)s1 (stereo not drawn)	-6.65
O=C1CC(NS(=O)(=O)c2ccc(Cl)cc2)CN1 (stereo not drawn)	0.308

Compound	cytotoxicity at 70.5 h [%]
O=C1CC(NS(=O)(=O)c2cccc(F)c2)CN1 (stereo not drawn)	5.76
O=C1CC(NS(=O)(=O)c2ccc(F)c(Cl)c2)CN1 (stereo not drawn)	0.519
COC(=O)c1ccc(S(=O)(=O)NC2CNC(=O)C2)cc1 (stereo not drawn)	0.76
O=C(NC1CC(=O)N(C2CC2)C1)c1ccc(Cl)s1 (stereo not drawn)	-8.35
CCS(=O)(=O)CCNC(=O)c1cc2n(n1)CCCO2	-5.74
O=C(c1cnn2c1OCCC2)N1CCC(Cc2ccccc2)CC1	29.6
CC(=O)c1ccc(N2CCN(C(=O)c3cnn4c3OCCC4)CC2)cc1	1.33
O=C(c1cnn2c1OCCC2)N1CCN(C(=O)C2CCCO2)CC1 (stereo not drawn)	-5.75
CC(C)(C)OC(=O)N1CCN(C(=O)c2cnn3c2OCCC3)CC1	-0.601
CCc1ccc(S(=O)(=O)N2CC3(COC(C)(C)OC3)C2)s1	14.1
COc1ccc(C)cc1NC(=O)Nc1cnc(N2CCOCC2)nc1	-0.928
O=S(=O)(Nc1cnc(N2CCCC2)nc1)c1ccc(C(F)(F)F)cc1	31.4
O=S(=O)(Nc1cnc(N2CCCC2)nc1)c1ccc(OC(F)(F)F)cc1	-4.76
O=S(=O)(Nc1cnc(N2CCOCC2)nc1)c1ccc(Cl)cc1	3.18
CC(C)CN1CCC2(Cc3ccccc3NC2=O)C1 (stereo not drawn)	-4.52
CCN1CCOCC2(CCCN(c3nncs3)C2)C1 (stereo not drawn)	-2.2
Cc1nnc([C@@H]2CCO[C@@H]3CCN(C(=O)Cc4ccccn4)C[C@@H]32)o1	-0.42
CN1CCN([C@@H]2CN(C(=O)c3ccsc3)[C@@H]3CCCO[C@H]23)CC1	-2.84
CN1CCN([C@@H]2CN(C(=O)c3ccnnc3)[C@@H]3CCCO[C@H]23)CC1	-3.3
CCCN(CC)C(=O)c1nc2c(n1C)CCN(Cc1ccccc1)C2	-4.66
COCCC1COC2(CCN(C(C)=O)CC2)C1 (stereo not drawn)	-5.06
CCN(CC)[C@@H]1CN(Cc2cnn(C)c2)[C@@H]2COC[C@H]12	-5.97

Compound	cytotoxicity at 70.5 h [%]
CN1CC[C@]2(CN(Cc3cccs3)C[C@H]2c2ccccc2)C1=O	-4.05
O=C(C1CC=CC1)N1CC[C@H]2[C@@H]1CCC(=O)N2c1ccccc1	-3.86
Cc1nnc([C@@H]2CC[C@@H]3[C@@H](CCN3CC3CCOCC3)O2)o1	-1.38
CCCS(=O)(=O)NCC1OCCc2cn(CC3CCOCC3)nc21 (stereo not drawn)	30.2
Cc1cnc(N2CCC3(CC2)CC3C(=O)NCC2CC2)nc1 (stereo not drawn)	11.9
COc1ccc(N2CCOCC3(CCCN(c4cnccn4)C3)C2)cc1 (stereo not drawn)	-1.59
COCC1CN(Cc2ccoc2)Cc2cn(CC3CCCC3)nc21 (stereo not drawn)	-4.4
O=S(=O)(C1CC1)N1CCC2(CC1)COC(COc1ccccn1)C2 (stereo not drawn)	-5.06
CCS(=O)(=O)N1CCC2(CC1)CC(OCC1CC1)CO2 (stereo not drawn)	-7.89
COCC1CN(Cc2ccoc2)Cc2cn(CC3CCOCC3)nc21 (stereo not drawn)	-9.14
COc1ccc(N2CCCC3(C2)CN(c2ncccn2)CCO3)cc1 (stereo not drawn)	-2.45
CCc1ccc(C(=O)N2CCCn3nnc(Cn4cccn4)c3C2)cc1	-5.86
O=S(=O)(C1CC1)N1CCOCC2(CN(c3ncccn3)CCO2)C1 (stereo not drawn)	-9.2
O=C(NCc1ccccn1)[C@@H]1COC[C@H]2CNC[C@H]21	-12.9
O=S(=O)(C1CC1)N1CCC2(CC1)COC(COc1cccnc1)C2 (stereo not drawn)	-10.2
CCOCC1CN(Cc2ccco2)Cc2ccnn2C1 (stereo not drawn)	-5.17
CCC(CC)CN1C[C@@H]2OCCN(Cc3cnn(C)c3)[C@@H]2C1	-3.01
Cn1cc(CN2CCO[C@H]3CN(Cc4ccco4)C[C@H]32)cn1	-2.62
Cc1ccoc1C(=O)N1CCCC2(CCCN2S(C)(=O)=O)C1 (stereo not drawn)	-3.55
CS(=O)(=O)N1CCCC12CCCN(C(=O)c1ccc[nH]1)C2 (stereo not drawn)	9.82
c1cncc(COCC2CN(Cc3ccncc3)Cc3ccnn3C2)c1 (stereo not drawn)	1.86
CS(=O)(=O)N1CCCCC12CCN(C(=O)c1ccccc1)C2 (stereo not drawn)	-8.78

Compound	cytotoxicity at 70.5 h [%]
c1cncc(CN2CCC3(CCCN(c4nncs4)C3)C2)c1 (stereo not drawn)	-7.53
CN1CCN(C(=O)c2n[nH]c3c2CN(Cc2nccs2)CC3)CC1	-12
c1ccc(CN2Cc3ccnn3CC(COCc3cccnc3)C2)nc1 (stereo not drawn)	-9.03
CCc1nn(-c2cc(Oc3cc(C)ccc3C)nc(C)n2)c(N)c1C#N	28.3
CC1CCN(C(=O)Cn2nc(Br)nc2Br)CC1	-5.71
Cn1c(N)c2c(=O)n(C)c(-c3ccc(Cl)cc3Cl)cc2c(C#N)c1=O	-4.83
Cc1cnc(N2C(=O)CSC2c2ccccc2)s1 (stereo not drawn)	-9.48
CN(C)CCCNC(=O)CNC(=O)N1CCc2c([nH]c3ccccc23)C1	35.2
CC(=O)c1cn(CCC(=O)NCCC(=O)O)c2ccccc12	-12.4
COc1cccc2c1ccn2CC(=O)N[C@@H](CCSC)C(=O)O	-3.11
O=C1CC(c2cccc(O)c2)c2c(c(C(=O)O)cn2-c2ccccc2)N1 (stereo not drawn)	4.21
O=C1CC(c2cccnc2)c2c(c(C(=O)O)cn2-c2ccccc2)N1 (stereo not drawn)	-1.92
Cc1ccc2c(ccn2CC(=O)NC[C@@H]2CCCN3CCCC[C@H]23)c1	-2.59
COC(=O)CC(c1ccccc1)c1oc(C)cc(=O)c1O (stereo not drawn)	6.19
CC[C@H](C)[C@H](NC(=O)c1ccccc1-n1cnnn1)C(=O)OC	33.9
CCS(=O)(=O)N1CCCC2(COCCN(c3nnc(C)o3)C2)C1 (stereo not drawn)	-1.84
Cc1ncsc1CN1CCn2c(COCC3CC3)cnc2C1C (stereo not drawn)	-2.63
CC(C)NC(=O)C[C@H]1[C@H]2CN(C(=O)Cc3ccccn3)C[C@@H]12	1.47
CC(C)CN1CCCC2(CCN(c3ccc(C#N)cn3)C2)C1 (stereo not drawn)	2.01
CN1CC[C@]2(CN(Cc3nccs3)C[C@H]2c2ccccc2)C1=O	4.14
CNC(=O)[C@@H]1CC[C@@H]2[C@@H](CCN2Cc2cn(C)c3ccccc23)O1	-3.34
N#Cc1ccc(N2CCC3(CCCN(c4ccccn4)C3)C2)nc1 (stereo not drawn)	-1.5

Compound	cytotoxicity at 70.5 h [%]
O=S(=O)(C1CC1)N1CC[C@H](OCC2CC2)[C@@H]1Cc1cccnc1	-4.98
CN(C)C(=O)C1CCC2(CCN(Cc3cnn(C)c3)CC2)C1 (stereo not drawn)	-7.73
Cc1noc(C)c1CN1C[C@H](OCC(=O)N(C)C)[C@H]2OCCC[C@H]21	-6.96
Cc1cccc(CN2C[C@@H]3OCCN(c4cnccn4)[C@@H]3C2)n1	-4.63
O=C(c1cccnc1)N1CCOC2(COCCN(c3cncnc3)C2)C1 (stereo not drawn)	-9.01
Cc1noc(C)c1CN1C[C@H](OCC(=O)N(C)C)[C@H]2COC[C@H]21	-6.89
CN(C)S(=O)(=O)N1C[C@H]2CCC[C@@]2(COCc2cccnc2)C1	-6.86
Cc1noc(C)c1CN1C[C@H](OCC2CC2)[C@H]2COC[C@H]21	-7.4
COCC(=O)N1CCOC2(CCCN(c3cnccn3)C2)C1 (stereo not drawn)	-9.25
O=C(N1CCCC1)N1CC[C@H]2OCC[C@@]2(COc2ncccc2F)C1	-1.3
Fc1ccc(CN2CCC3(CCCN(c4nncs4)C3)C2)cc1 (stereo not drawn)	-2.74
O=C(c1ncccn1)N1CC[C@H]2OCC[C@@]2(COc2ccccn2)C1	-6.64
c1coc(CN2Cc3ccnn3CC(COCC3CC3)C2)c1 (stereo not drawn)	-6.27
Fc1cnc(N2CC[C@@H]3O[C@H](COCc4ccccn4)CC[C@@H]32)nc1	-3.08
Cc1ccc(N2CC[C@@H]3O[C@@H](COCc4cccnc4)CC[C@@H]32)nn1	-3.24
O=C(NCc1ccccn1)[C@@H]1COC[C@H]2CN(c3ncccn3)C[C@H]21	-6.07
c1cncc(OCC2CC3(CCN(CC4CC4)CC3)CO2)c1 (stereo not drawn)	-10.5
Cc1nc(C)n(CC2CN(Cc3cccnc3)Cc3nccn3C2)n1 (stereo not drawn)	-1.38
Cc1ncsc1CN1C[C@H](OCc2ccncc2)[C@H]2OCCC[C@H]21	-8.48
CC(C)N1[C@@H](C(=O)NCCN(C)C)C[C@H]2CN(c3ncccn3)C[C@H]21	-2.96
